Laboratory results as given in patent US20110045101A1, “FUNGICIDAL SUBSTITUTED AZOLES” (E.I. Du Pont De Nemours and Company, priority 2009, published 2011).
Marks after values point to notes of the source that are not given here.

Tests used:
Format in all cases: in vivo
Conditions in all cases: 100 = 100% disease control
[1] = tested on: Erysiphe graminis f. sp. tritici; test: Test J: wheat powdery mildew on wheat seedlings, sprayed the day before inoculation, visual disease rating
Text: (§1) General protocol for preparing test suspensions for Tests A-J: The test compounds were first dissolved in acetone in an amount equal to 3% of the final volume and then suspended at the desired concentration (in ppm) in acetone and purified water (50/50 mix) containing 250 ppm of the surfactant Trem® 014 (polyhydric alcohol esters). The resulting test suspensions were then used in tests A-J. Spraying a 200 ppm test suspension to the point of run-off on the test plants was the equivalent of a rate of 500 g/ha. […] The test suspension was sprayed to the point of run-off on wheat seedlings. […] A dash (-) indicates no test results. All results are for 200 ppm except where followed by “*”, which indicates 40 ppm.

Botrytis cinerea = test: Test C: tomato Botrytis on tomato seedlings, sprayed the day before inoculation, visual disease rating
Text: General protocol for preparing test suspensions for Tests A-J: The test compounds were first dissolved in acetone in an amount equal to 3% of the final volume and then suspended at the desired concentration (in ppm) in acetone and purified water (50/50 mix) containing 250 ppm of the surfactant Trem® 014 (polyhydric alcohol esters). The resulting test suspensions were then used in tests A-J. Spraying a 200 ppm test suspension to the point of run-off on the test plants was the equivalent of a rate of 500 g/ha. […] The test suspension was sprayed to the point of run-off on tomato seedlings. […] A dash (-) indicates no test results. All results are for 200 ppm except where followed by “*”, which indicates 40 ppm.

Alternaria solani = test: Test D: tomato early blight, sprayed the day before inoculation, visual disease rating
Text: as §1

Septoria tritici = test: Test G: wheat leaf blotch on wheat seedlings, sprayed the day before inoculation, visual disease rating
Text: General protocol for preparing test suspensions for Tests A-J: The test compounds were first dissolved in acetone in an amount equal to 3% of the final volume and then suspended at the desired concentration (in ppm) in acetone and purified water (50/50 mix) containing 250 ppm of the surfactant Trem® 014 (polyhydric alcohol esters). The resulting test suspensions were then used in tests A-J. Spraying a 200 ppm test suspension to the point of run-off on the test plants was the equivalent of a rate of 500 g/ha. […] The test suspension was sprayed to the point of run-off on wheat seedlings. The following day the seedlings were inoculated with a spore suspension of Septoria tritici (the causal agent of wheat leaf blotch) and incubated in saturated atmosphere at 24° C. for 48 h, and then moved to a growth chamber at 20° C. for 19 days, after which time visual disease ratings were made. […] A dash (-) indicates no test results. All results are for 200 ppm except where followed by “*”, which indicates 40 ppm.

Septoria nodorum = test: Test F: wheat glume blotch on wheat seedlings, sprayed the day before inoculation, visual disease rating
Text: as §1

[2] = tested on: Puccinia recondita f. sp. tritici; test: Test I: wheat leaf rust on wheat seedlings, sprayed the day before inoculation, visual disease rating
Text: as §1

[3] = 200 ppm, 0 = no control relative to controls
[4] = 40 ppm (marked *), 0 = no control

| Compound | Test J disease control rating ([1]; 200 ppm, 0 = no control) | Test C disease control rating (Botrytis cinerea; 200 ppm, 0 = no control) | Test D disease control rating (Alternaria solani; 200 ppm, 0 = no control) | Test G disease control rating (Septoria tritici; 200 ppm, 0 = no control) | Test F disease control rating (Septoria nodorum; 200 ppm, 0 = no control) | Test I disease control rating ([2]; 200 ppm, 0 = no control) | Test J disease control rating [1, 3] | Test C disease control rating (Botrytis cinerea; [3]) | Test D disease control rating (Alternaria solani; [3]) | Test G disease control rating (Septoria tritici; [3]) | Test F disease control rating (Septoria nodorum; [3]) | Test I disease control rating [2, 3] | further results |
| --- | --- | --- | --- | --- | --- | --- | --- | --- | --- | --- | --- | --- | --- |
| Cn1nc(Br)c(-c2c(F)cc(F)cc2F)c1-c1ccc(Cl)cc1 [compound 166] | 100% | 96% | 97% | 96% | 40% | 91% | – | – | – | – | – | – | – |
| Fc1ccc(-n2c(Cl)nc(Cl)c2-c2c(F)cc(F)cc2F)cc1 [compound 147] | 99% | 91% | 100% | 100% | 82% | 100% | – | – | – | – | – | – | – |
| Cc1nc(Cl)n(-c2ccc(Cl)c(F)c2)c1-c1ccccn1 [compound 264] | 99% | 99% | 88% | 95% | 0% | 98% | – | – | – | – | – | – | – |
| Fc1cccc(F)c1-c1c(Cl)nc(Br)n1Cc1ccccc1 [compound 95] | – | – | – | – | – | – | 100% | 96% | 97% | 95% | 95% | 100% | – |
| Cc1ccc(-n2c(C)nc(Cl)c2-c2c(F)ccc(F)c2F)cc1C [compound 238] | 100% | 99% | 99% | 93% | 0% | 96% | – | – | – | – | – | – | – |
| Cc1nc(Cl)c(-c2c(F)cccc2F)n1-c1ccc(C(F)(F)F)cc1 [compound 92] | – | – | – | – | – | – | 100% | 76% | 100% | 98% | 0% | 89% | – |
| COc1cc(F)c(-c2c(Cl)nc(Br)n2-c2ccc(F)cc2)c(F)c1 [compound 144] | – | – | – | – | – | – | 100% | 100% | 100% | 100% | 100% | 100% | – |
| Fc1cc(-n2c(Br)nc(Cl)c2-c2c(F)cccc2F)ccc1Cl [compound 223] | 100% | 99% | 100% | 98% | 60% | 99% | – | – | – | – | – | – | – |
| COc1cc(F)c(-c2c(Cl)nc(Cl)n2-c2cccc(Cl)c2)c(F)c1 [compound 453] | – | – | – | – | – | – | 100% | 99% | 100% | 93% | – | 100% | Test F disease control rating (Septoria nodorum; 40 ppm (marked *)): 90* % |
| Fc1cccc(F)c1-c1c(Cl)nc(Br)n1Cc1cccc(Cl)c1 [compound 101] | – | – | – | – | – | – | 99% | 88% | 0% | 97% | 0% | 100% | – |
| Cc1ccc(-n2c(C)nc(Cl)c2-c2ccc(F)cc2Cl)cc1 [compound 188] | 99% | 98% | 100% | 97% | 0% | 100% | – | – | – | – | – | – | – |
| Fc1cc(-n2c(Cl)nc(Cl)c2-c2cccnc2Cl)ccc1Cl [compound 458] | – | – | – | – | – | – | 89% | 96% | 16% | 92% | 0% | 95% | – |
| Cc1nc(Cl)c(-c2c(F)ccc(F)c2F)n1-c1ccc(Cl)cc1 [compound 48] | – | – | – | – | – | – | 100% | 99% | 100% | 94% | 100% | 100% | – |
| Cc1nc(Br)n(-c2c(F)cc(F)cc2F)c1-c1ccc(Cl)cc1 [compound 445] | – | – | – | – | – | – | – | – | – | 95% | – | – | Test J disease control rating [1, 4]: 98* %; Test C disease control rating (Botrytis cinerea; [4]): 97* %; Test D disease control rating (Alternaria solani; [4]): 100* %; Test F disease control rating (Septoria nodorum; [4]): 92* %; Test I disease control rating [2, 4]: 97* % |
| Fc1ccc(-n2c(Br)nc(Cl)c2-c2c(F)cc(F)cc2F)cc1 [compound 152] | 99% | 99% | 99% | 96% | 69% | 89% | – | – | – | – | – | – | – |
| Fc1cc(-n2cnc(Cl)c2-c2c(F)ccc(F)c2F)ccc1Cl [compound 124] | – | – | – | – | – | – | 98% | 98% | 97% | 90% | 0% | 95% | – |
| CC(C)c1nc(Cl)c(-c2c(F)cccc2F)n1-c1ccc(Cl)cc1 [compound 116] | – | – | – | – | – | – | – | – | – | – | – | – | Test J disease control rating ([1]; 40 ppm (marked *)): 0* %; Test C disease control rating (Botrytis cinerea; 40 ppm (marked *)): 0* %; Test D disease control rating (Alternaria solani; 40 ppm (marked *)): 0* %; Test G disease control rating (Septoria tritici; 40 ppm (marked *)): 0* %; Test F disease control rating (Septoria nodorum; 40 ppm (marked *)): 0* %; Test I disease control rating ([2]; 40 ppm (marked *)): 0* % |
| COc1cc(F)c(-c2c(-c3cccc(F)c3)c(C)nn2C)c(F)c1 [compound 78] | – | – | – | – | – | – | 100% | 91% | 100% | 92% | 0% | 99% | – |
| Fc1ccc(-n2cnc(Cl)c2-c2c(F)ccc(F)c2Cl)cc1 [compound 176] | 99% | 96% | 91% | 87% | 0% | 99% | – | – | – | – | – | – | – |
| Fc1cccc(F)c1-c1c(Cl)nc(Br)n1-c1cccc(Cl)c1 [compound 221] | 98% | 99% | 99% | 95% | 0% | 97% | – | – | – | – | – | – | – |
| COc1cc(F)c(-c2c(Cl)nc(Cl)n2-c2ccc(C)cc2)c(F)c1 [compound 146] | – | – | – | – | – | – | 100% | 99% | 100% | 100% | 100% | 100% | – |
